As a reminder, the viability is a read-out of living cells in per cent, often relative to untreated cells.

The values below come from article PMC12040169 (PLOS Biology, 2025).

The nature of the data set: in vitro. The conditions noted are these: human, hela cells, % viability.
In the case of `O=c1[nH]c(/C=C/c2cc(Br)ccc2OCc2cccc3ccccc23)c([N+](=O)[O-])c(=O)[nH]1` [CBK268052], the viability at 28.5 h, 10 µM is 86.3%.

In the case of `N#Cc1c(NC(=O)Cn2cnc3sc(-c4ccccc4)cc3c2=O)sc2c1CCC2` [CBK268053], the viability at 28.5 h, 10 µM amounted to 95.2%.

As for `Cc1ccc(C(=O)Nc2ccc(S(=O)(=O)N3CCCC3)cc2)cc1S(=O)(=O)Nc1ccccc1` [CBK268054], the viability at 28.5 h, 10 µM came out at 47.4%.

In the case of `O=C(O)c1ccc(-c2ccc(/C=C/c3[nH]c(=O)[nH]c(=O)c3[N+](=O)[O-])o2)cc1` [CBK268055], the viability at 28.5 h, 10 µM was found to be 105%.

With `Cc1[nH]c2ccccc2c1C(=O)CSc1n[nH]c(N)n1` [CBK268056], the viability at 28.5 h, 10 µM came out at 98.3%.

For the molecule `O=C(CN1CCCC1=O)NC1(C(F)(F)F)NC(=O)N(c2ccc(F)cc2)C1=O` (stereo not drawn) [CBK268057], the viability at 28.5 h, 10 µM was found to be 98.1%.

As to `O=C(CN1C(=O)C2CCC(c3ccccc3)CC2C1=O)Nc1cccc2ccccc12` (stereo not drawn) [CBK268061], the viability at 28.5 h, 10 µM came to 86%.

On to `CC1CCN(c2nnnc3c2sc2nc(N4CCOCC4)c4c(c23)CC(C)(C)SC4)CC1` [CBK268062], for which the viability at 28.5 h, 10 µM was determined as 90.4%.

For `COc1ccc(NC(=O)CSc2nc(N)n[nH]2)cc1Cl` [CBK268065], the viability at 28.5 h, 10 µM worked out at 108%.

For the molecule `O=[N+]([O-])c1ccc(S(=O)(=O)NCCSCc2cccc(Cl)c2)cc1` [CBK268066], the viability at 28.5 h, 10 µM was determined as 107%.

On to `Cc1cccc(NS(=O)(=O)c2ccc(OCC(=O)Nc3ccc4c(c3)OCCO4)cc2)c1` [CBK268068], for which the viability at 28.5 h, 10 µM was found to be 111%.

Turning to `CCC1CCCCN1S(=O)(=O)c1ccc(NC(=O)Cn2c(=O)oc3ccccc32)cc1` (stereo not drawn) [CBK268069], the viability at 28.5 h, 10 µM came out at 89.2%.

As to `CNc1ccc(C(O)(C(F)(F)F)C(F)(F)F)cc1C(O)(C(F)(F)F)C(F)(F)F` [CBK268070], the viability at 28.5 h, 10 µM worked out at 96.6%.

Turning to `CN1CCN(c2ccccc2NC(=O)c2ccc3c(c2)OCCO3)CC1` [CBK268072], the viability at 28.5 h, 10 µM worked out at 101%.

Turning to `O=[N+]([O-])c1ccc(N2CCNCC2)cc1NCc1ccccn1` [CBK268074], the viability at 28.5 h, 10 µM came to 122%.

Regarding `Cc1cc(C(F)(F)F)nc(SCC(=O)N2c3ccccc3Sc3ccccc32)n1` [CBK268078], the viability at 28.5 h, 10 µM worked out at 90.8%.

With `CN1CCN(C(=O)CN(c2ccccc2)S(=O)(=O)N(C)C)CC1` [CBK268079], the viability at 28.5 h, 10 µM was determined as 86.6%.

For `CCOc1cc(C)c(C(C)C)cc1S(=O)(=O)NCc1ccccn1` [CBK268080], the viability at 28.5 h, 10 µM was determined as 104%.

Consider `O=C(O)c1cc(Nc2nc(N3CCOCC3)nc(N3CCOCC3)n2)ccc1Cl` [CBK268081], for which the viability at 28.5 h, 10 µM was 97.5%.

For `CCC(CO)NCc1ccc(-c2ccccc2)cc1` (stereo not drawn) [CBK268082C], the viability at 28.5 h, 10 µM came out at 97.6%.

`c1cc(-c2nnn[nH]2)ccc1OCc1nnn[nH]1` [CBK268083]: the viability at 28.5 h, 10 µM is 93.1%.

On to `Cc1nn2c(CN(C(=O)c3ccccc3)c3ccccc3)nnc2c2ccccc12` [CBK268084], for which the viability at 28.5 h, 10 µM stood at 87.7%.

`Cc1nnc(SCc2ccc(CSc3nnc(C)c(=O)[nH]3)cc2)[nH]c1=O` [CBK268085]: the viability at 28.5 h, 10 µM amounted to 86.1%.

Consider `Cc1cc(Br)ccc1NC(=O)CSc1nnc(-c2ccccc2O)n1-c1ccccc1` [CBK268086], for which the viability at 28.5 h, 10 µM stood at 90.7%.

`c1ccc2c(c1)nc1n2CN(Cc2ccc3c(c2)OCO3)CN1` [CBK268087]: the viability at 28.5 h, 10 µM stood at 99.1%.

On to `CCc1ccc(C2=CC(c3cccc(C)c3)n3nnnc3N2)cc1` (stereo not drawn) [CBK268095], for which the viability at 28.5 h, 10 µM turned out to be 88.6%.

`O=C(CSc1nnc(-c2ccccc2O)n1-c1ccccc1)N1CCc2ccccc21` [CBK268097]: the viability at 28.5 h, 10 µM amounted to 100%.

On to `O=C(CSc1nc2ccccc2c2nc3ccccc3n12)Nc1ccc(Cl)cc1F` [CBK268098], for which the viability at 28.5 h, 10 µM is 115%.

Regarding `CC(=O)Nc1ccc(S(=O)(=O)NC2(C(F)(F)F)NC(=O)N(C3CCCC3)C2=O)cc1` (stereo not drawn) [CBK268100], the viability at 28.5 h, 10 µM stood at 84.6%.

In the case of `COc1ccc(S(=O)(=O)N(C)CC(=O)N2CCN(C)CC2)cc1C` [CBK268105], the viability at 28.5 h, 10 µM amounted to 100%.

On to `O=C(O)c1ccc(NC(=O)c2cnccn2)cc1` [CBK268110], for which the viability at 28.5 h, 10 µM came out at 94%.

`Cc1cc(C)nc(NC(=O)C(C)Oc2ccc(Cl)cc2C)n1` (stereo not drawn) [CBK268111]: the viability at 28.5 h, 10 µM turned out to be 94.8%.

Turning to `Cc1scc(C(=O)NN2CCN(C)CC2)c1-c1ccccc1` [CBK268115], the viability at 28.5 h, 10 µM stood at 93%.

As to `COC(=O)c1c(NC(=O)c2cc(C)on2)sc(C(=O)Nc2ccc(Cl)cc2)c1C` [CBK268116], the viability at 28.5 h, 10 µM was determined as 89.7%.

Take `COc1ccc2c(Cl)c(C(=O)NCCc3ccc(S(N)(=O)=O)cc3)sc2c1` [CBK268120]: the viability at 28.5 h, 10 µM was 104%.

Regarding `COc1cccc(CN2CCN(C(=O)C3(C)CC3(Cl)Cl)CC2)c1` (stereo not drawn) [CBK268121], the viability at 28.5 h, 10 µM stood at 96.7%.

For `Cc1noc(C)c1C(=O)Nc1ccc(N2CCOCC2)c2nonc12` [CBK268125], the viability at 28.5 h, 10 µM is 94.7%.

With `S=C(NCCN1CCCCC1)NCC1CCCO1` (stereo not drawn) [CBK268129], the viability at 28.5 h, 10 µM was 107%.

For the molecule `Cc1cc(C(=O)NCCc2ccc(S(N)(=O)=O)cc2)no1` [CBK268130], the viability at 28.5 h, 10 µM worked out at 99.3%.

As for `Cc1cc(C(=O)N(Cc2ccccc2)c2ccccc2)no1` [CBK268131], the viability at 28.5 h, 10 µM came out at 94.2%.

For the molecule `Cc1cc(OCC(=O)NN2CCN(C)CC2)ccc1[N+](=O)[O-]` [CBK268136], the viability at 28.5 h, 10 µM amounted to 99.8%.

For `O=C(O)C1C2CCC(O2)C1C(=O)Nc1ccc(S(=O)(=O)N2CCc3ccccc32)cc1` (stereo not drawn) [CBK268137], the viability at 28.5 h, 10 µM is 93.1%.

Turning to `COc1ccc(C(=O)Nc2ccc(S(=O)(=O)N3CCN(C)CC3)cc2)cc1[N+](=O)[O-]` [CBK268140], the viability at 28.5 h, 10 µM is 97%.

With `Cc1noc(C)c1C(=O)NCCc1ccc(S(N)(=O)=O)cc1` [CBK268143], the viability at 28.5 h, 10 µM is 104%.

Consider `CCc1ccc(C(=O)NCCCN2CCOCC2)cc1` [CBK268144], for which the viability at 28.5 h, 10 µM was found to be 104%.

As for `Cc1cc(C(=O)NCCCn2ccnc2)no1` [CBK268145], the viability at 28.5 h, 10 µM worked out at 103%.

Turning to `COC(=O)c1sccc1NC(=O)Cc1ccccc1[N+](=O)[O-]` [CBK268146], the viability at 28.5 h, 10 µM came to 98.7%.

Consider `Cc1ccc(OCC(=O)Nc2sc3c(c2C(N)=O)CCCCC3)c([N+](=O)[O-])c1` [CBK268148], for which the viability at 28.5 h, 10 µM came to 101%.

In the case of `O=C(COc1ccccc1)Nc1ccc(N2CCOCC2)c2nonc12` [CBK268149], the viability at 28.5 h, 10 µM worked out at 87.9%.

As to `CCC(Oc1cc(C)ccc1Cl)C(=O)Nc1sccc1C(N)=O` (stereo not drawn) [CBK268152], the viability at 28.5 h, 10 µM was 105%.

For the molecule `Cc1occc1C(=O)NC(C)c1ccc2c(c1)OCO2` (stereo not drawn) [CBK268153], the viability at 28.5 h, 10 µM turned out to be 105%.

On to `O=C(O)COCC(=O)N1CCN(c2ccccc2Cl)CC1` [CBK268155], for which the viability at 28.5 h, 10 µM came out at 108%.

Regarding `COc1cc(NS(=O)(=O)c2ccc(NC(=O)c3cccnc3)cc2)ncn1` [CBK268156], the viability at 28.5 h, 10 µM came to 93%.

In the case of `Cc1cc(NS(=O)(=O)c2ccc(NC(=S)NC3CCCCC3)cc2)no1` [CBK268157], the viability at 28.5 h, 10 µM was 91.3%.

Regarding `Cc1onc(-c2ccccc2)c1C(=O)Nc1cccc(S(=O)(=O)N2CCOCC2)c1` [CBK268159], the viability at 28.5 h, 10 µM is 101%.

Take `Cc1cc(NS(=O)(=O)c2ccc(NC(=S)NCC3CCCO3)cc2)no1` (stereo not drawn) [CBK268160]: the viability at 28.5 h, 10 µM came to 101%.

Turning to `CN1CCN(S(=O)(=O)c2ccc(NC(=O)Cc3ccc([N+](=O)[O-])cc3)cc2)CC1` [CBK268161], the viability at 28.5 h, 10 µM was determined as 121%.

Turning to `Cc1cc(C(=O)Nc2ccc(S(=O)(=O)Nc3onc(C)c3C)cc2)no1` [CBK268166], the viability at 28.5 h, 10 µM worked out at 95.3%.

As for `NC(=O)c1cc(Cc2ccccc2)sc1NC(=O)c1cccnc1` [CBK268168], the viability at 28.5 h, 10 µM was determined as 96.2%.

Take `S=C(NCCN1CCCCC1)NCc1ccco1` [CBK268171]: the viability at 28.5 h, 10 µM amounted to 107%.

As to `O=C(Nc1ccc(S(=O)(=O)NCCc2ccccc2)cc1)c1ccncc1` [CBK268172], the viability at 28.5 h, 10 µM came to 90.3%.

On to `O=S(=O)(c1cccc2nsnc12)N1CCN(C2CCCCC2)CC1` [CBK268173], for which the viability at 28.5 h, 10 µM was found to be 96.9%.

In the case of `CN1CCN(NC(=O)COc2ccc(Br)cc2Cl)CC1` [CBK268174], the viability at 28.5 h, 10 µM is 92.6%.

In the case of `COC(=O)c1cc(-c2ccccc2)sc1NC(=O)c1cnccn1` [CBK268175], the viability at 28.5 h, 10 µM was 93.5%.

`O=C(O)C1CC=CCC1C(=O)Nc1ccc(S(=O)(=O)N2CCCc3ccccc32)cc1` (stereo not drawn) [CBK268179]: the viability at 28.5 h, 10 µM came out at 94.8%.

As to `O=C(NCc1ccco1)c1c(NC(=O)C2CCCO2)sc2c1CCC2` (stereo not drawn) [CBK268180], the viability at 28.5 h, 10 µM is 94.4%.

Turning to `Cc1sc(NC(=O)c2ccc3c(c2)OCCO3)c(C(=O)NCc2cccnc2)c1C` [CBK268181], the viability at 28.5 h, 10 µM stood at 90.8%.

In the case of `CCOc1cccc(C(=O)NN2CCN(C)CC2)c1` [CBK268184], the viability at 28.5 h, 10 µM came out at 97.7%.

Take `O=C(Nc1ccc(S(=O)(=O)NCc2ccccc2)cc1)Nc1ccc2c(c1)OCO2` [CBK268186]: the viability at 28.5 h, 10 µM is 95.1%.

Regarding `CS(=O)(=O)N(CC(=O)Nc1ccc(S(=O)(=O)N2CCCCC2)cc1)c1ccc2c(c1)OCO2` [CBK268189], the viability at 28.5 h, 10 µM worked out at 96.4%.

Take `N#Cc1c(C(F)(F)F)cc(-c2ccccc2)nc1SCCC(=O)Nc1ccccc1O` [CBK268191]: the viability at 28.5 h, 10 µM worked out at 103%.

In the case of `COc1ccc(C2CC(c3ccccc3)=NN2c2ccc(S(N)(=O)=O)cc2)cc1OC` (stereo not drawn) [CBK268193], the viability at 28.5 h, 10 µM was 107%.

Take `NS(=O)(=O)c1ccc(NCc2cc(Cl)ccc2OCc2ccc(F)cc2)cc1` [CBK268196]: the viability at 28.5 h, 10 µM was found to be 87.2%.

With `COc1ccc([N+](=O)[O-])cc1N(CC(=O)Nc1cccc2ccccc12)S(C)(=O)=O` [CBK268197], the viability at 28.5 h, 10 µM amounted to 84.2%.

As for `Cc1c(Cl)cccc1NC(=O)CSCc1cc(=O)[nH][nH]1` [CBK268199], the viability at 28.5 h, 10 µM stood at 98.1%.

For the molecule `Cc1ccc(-c2cc(C(=O)NCCCn3ccnc3)no2)cc1` [CBK268200], the viability at 28.5 h, 10 µM came out at 102%.

In the case of `CCn1c(SCC(=O)Nc2ccccc2[N+](=O)[O-])nnc1-c1cc(Br)ccc1O` [CBK268201], the viability at 28.5 h, 10 µM stood at 101%.

On to `NS(=O)(=O)c1ccc(NC(=O)CSc2ccc3ccccc3c2)cc1` [CBK268203], for which the viability at 28.5 h, 10 µM is 89.8%.
